Data on 19 molecules can be found in ChEMBL document CHEMBL1140240, “Glutamic acid analogues as potent dipeptidyl peptidase IV and 8 inhibitors” (Bioorg Med Chem Lett, 2005).

One assay deals with Dipeptidyl peptidase 4 (Homo sapiens, UniProt P27487).
Sequence of Dipeptidyl peptidase 4 (P27487 whole entry): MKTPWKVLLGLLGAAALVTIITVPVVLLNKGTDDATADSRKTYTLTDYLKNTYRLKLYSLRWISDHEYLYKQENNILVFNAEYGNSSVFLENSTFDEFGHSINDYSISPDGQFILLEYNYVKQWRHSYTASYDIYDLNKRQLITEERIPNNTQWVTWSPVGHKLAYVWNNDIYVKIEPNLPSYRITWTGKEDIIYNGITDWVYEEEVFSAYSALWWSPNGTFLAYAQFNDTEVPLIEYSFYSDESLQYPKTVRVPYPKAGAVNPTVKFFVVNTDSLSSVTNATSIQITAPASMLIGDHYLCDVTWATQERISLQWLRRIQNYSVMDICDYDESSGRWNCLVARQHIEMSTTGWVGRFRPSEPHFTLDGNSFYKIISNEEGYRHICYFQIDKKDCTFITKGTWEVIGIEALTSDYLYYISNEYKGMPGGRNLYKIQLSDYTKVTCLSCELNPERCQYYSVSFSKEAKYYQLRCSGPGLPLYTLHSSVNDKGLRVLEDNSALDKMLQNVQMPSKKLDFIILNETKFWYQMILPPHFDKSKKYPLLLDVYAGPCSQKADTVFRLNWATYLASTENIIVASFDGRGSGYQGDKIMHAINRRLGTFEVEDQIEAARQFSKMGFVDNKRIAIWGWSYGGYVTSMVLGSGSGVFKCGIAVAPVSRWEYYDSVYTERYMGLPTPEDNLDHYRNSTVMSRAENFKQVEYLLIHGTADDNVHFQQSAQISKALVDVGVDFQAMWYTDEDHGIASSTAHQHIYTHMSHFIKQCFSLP
Broadly, the IC50 is the concentration needed to halve the response being measured. Read a high IC50 as lower potency. With `N#C[C@@H]1CCCN1C(=O)[C@@H](N)CC(=O)N1CCc2ccccc2C1`, the midpoint of inhibition, the IC50, lay at 99 nM. That is a double-digit nanomolar value.

Turning to `CC(C)(C)C(NC(=O)C[C@H](N)C(=O)N1CCC[C@H]1C#N)c1ccccc1` (stereo not given in full), the IC50 amounted to 251 nM.

`CCC(NC(=O)C[C@H](N)C(=O)N1CCC[C@H]1C#N)c1ccccc1` (stereo not given in full) returned an IC50 of 140 nM.

`N#C[C@@H]1CCCN1C(=O)[C@@H](N)CC(=O)N1CCN(C(=O)c2ccccc2)CC1`: the IC50 amounted to 123 nM.

`COc1cc2c(cc1OC)C(Cc1ccccc1)N(C(=O)C[C@H](N)C(=O)N1CCC[C@H]1C#N)CC2` (stereo not given in full): the IC50 was determined as 97 nM.

The molecule `CC(C)C(NC(=O)C[C@H](N)C(=O)N1CCC[C@H]1C#N)c1ccccc1` (stereo not given in full) had an IC50 of 212 nM.

Consider `COc1ccc(CCNC(=O)C[C@H](N)C(=O)N2CCC[C@H]2C#N)cc1OC`, for which half-maximal inhibition (IC50) required 116 nM.

`COc1ccc2c(c1)C(C(C)(C)C)N(C(=O)C[C@H](N)C(=O)N1CCC[C@H]1C#N)CC2` (stereo not given in full) registered an IC50 of 195 nM.

`COc1cc2c(cc1OC)C(C(C)C)N(C(=O)C[C@H](N)C(=O)N1CCC[C@H]1C#N)CC2` (stereo not given in full) registered an IC50 of 47 nM.

In the case of `COCC(Cc1ccccc1)NC(=O)C[C@H](N)C(=O)N1CCC[C@H]1C#N` (stereo not given in full), the midpoint of inhibition, the IC50, lay at 182 nM.

With `COc1cc2c(cc1OC)C(CCO)N(C(=O)C[C@H](N)C(=O)N1CCC[C@H]1C#N)CC2` (stereo not given in full), the IC50 worked out at 45 nM. Compared with the last molecule, the IC50 is about 4-fold lower.

Take `CC(C)C(Cc1ccccc1)NC(=O)C[C@H](N)C(=O)N1CCC[C@H]1C#N` (stereo not given in full): the IC50 came to 305 nM. This IC50 lies about 6.8-fold higher than the previous one.

For `COc1ccc2c(c1)CCN(C(=O)C[C@H](N)C(=O)N1CCC[C@H]1C#N)C2C(C)(C)C` (stereo not given in full), it took 72 nM to reach half-maximal inhibition (IC50). This IC50 lies about 4.2-fold lower than the previous one.

In the case of `N#C[C@@H]1CCCN1C(=O)[C@@H](N)CC(=O)NC(Cc1ccccc1)c1ccccc1` (stereo not given in full), the IC50 was 252 nM.

For `N#C[C@@H]1CCCN1C(=O)[C@@H](N)CC(=O)N1CCN(C(c2ccc(F)cc2)c2ccc(F)cc2)CC1`, the IC50 was determined as 227 nM.

`N#Cc1ccc[n+](N2CCN(C(=O)C[C@H](N)C(=O)N3CCC[C@H]3C#N)CC2)c1` yielded an IC50 of 87 nM.

For `N#C[C@@H]1CCCN1C(=O)[C@@H](N)CC(=O)NCc1ccccc1`, the IC50 is 238 nM. Compared with the last molecule, the IC50 is about 2.7-fold higher.

In the case of `COc1cc2c(cc1OC)CN(C(=O)C[C@H](N)C(=O)N1CCC[C@H]1C#N)CC2`, the IC50 turned out to be 63 nM. This IC50 lies about 3.8-fold lower than the previous one.

`COc1cc2c(cc1OC)C(C(C)(C)C)N(C(=O)C[C@H](N)C(=O)N1CCC[C@H]1C#N)CC2` (stereo not given in full) had an IC50 of 73 nM.

A further assay addresses Dipeptidyl peptidase 2 (Homo sapiens, UniProt Q9UHL4). The experiment in a line: Inhibitory concentration against DPP-II [Quiescent cell proline dipeptidase] or DPP-VII.
In the case of `COc1cc2c(cc1OC)CN(C(=O)C[C@H](N)C(=O)N1CCC[C@H]1C#N)CC2`, the IC50 was determined as 31300 nM.
